Consider 32 compounds from US9732087B2, “Diamino-pyridine, pyrimidine, and pyridazine modulators of the histamine H4 receptor” (JANSSEN PHARMACEUTICA NV, priority 2008, dated 2017).

Structures can show the parent of a compound that is named as a salt.

The term Ki denotes the dissociation constant of the complex between target and ligand, obtained from inhibition or displacement.

human H4 receptor, sequence (Q9H3N8 whole entry): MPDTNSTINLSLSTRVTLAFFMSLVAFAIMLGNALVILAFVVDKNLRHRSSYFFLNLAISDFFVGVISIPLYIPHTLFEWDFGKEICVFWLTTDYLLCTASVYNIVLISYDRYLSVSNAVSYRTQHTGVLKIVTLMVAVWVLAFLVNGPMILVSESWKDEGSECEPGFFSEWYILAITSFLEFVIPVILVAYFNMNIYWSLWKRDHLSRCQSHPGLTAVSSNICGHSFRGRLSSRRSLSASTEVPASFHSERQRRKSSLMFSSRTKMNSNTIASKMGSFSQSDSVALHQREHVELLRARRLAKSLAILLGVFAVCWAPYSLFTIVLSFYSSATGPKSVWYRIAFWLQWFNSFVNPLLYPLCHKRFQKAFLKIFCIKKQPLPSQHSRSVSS

The target in the experiment is human H4 receptor (Homo sapiens (Human), UniProt Q9H3N8). Kind of experiment: Binding assay on recombinant human histamine H4 receptor ([3H]histamine competition, SK-N-MC cell membranes). Conditions: membranes harvested with cell harvester; [3H]histamine 10 nM; average of results; read-out: Cell Harvester Ki. Put shortly:
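Scintillation counting of filter-bound [3H]histamine after rapid harvesting on 0.5% PEI-treated GF/C filters with ice-cold Tris/EDTA washes. Receptor source: 30,000 g membrane pellets of SK-N-MC cells stably or transiently expressing human H4. Values shown as '>' are the top concentration tested.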
`CN[C@@H]1CCN(c2ccnc(NC3CC4CC(C3C)C4(C)C)n2)C1` (stereo partly drawn) [Example 184, 4-[(3R)-3-(Methylamino)pyrrolidin-1-yl]-N-[(1S,2S,3S,5R)-2,6,6-trimethylbicyolo[3.1.1]hept-3-yl]pyrimidin-2-amine]: the Ki is 1.58 nM.

Consider `C[C@H]1[C@@H](Nc2nccc(N3CCNCC3)n2)C[C@@H]2C[C@H]1C2(C)C` (stereo in doubt) [Example 71, (4-Piperazin-1-yl-pyrimidin-2-yl)-(2,6,6-trimethyl-bicyclo[3.1.1]hept-3-yl)-amine], for which the Ki stood at 377 nM.

Turning to `CNC1CN(c2ccnc(N[C@H]3C[C@H]4CC[C@]3(C)C4(C)C)n2)C1` [Example 126, 4-[3-(Methylamino)azetidin-1-yl]-N-[(1R,2S,4R)-1,7,7-trimethylbicyclo[2.2.1]hept-2-yl]pyrimidin-2-amine], the Ki worked out at 19.8 nM.

On to `CN[C@@H]1CCN(c2ccnc(NC3CC3)c2)C1` [Example 8, N-Cyclopropyl-4-[(3R)-3-(methylamino)pyrrolidin-1-yl]pyridin-2-amine dihydrochloride], for which the Ki was 10.6 nM.

With `Cc1ccc(CNc2cc(N3CC[C@@H](N)C3)cnn2)cc1` [Example 343, 5-[(3R)-3-Aminopyrrolidin-1-yl]-N-(4-methylbenzyl)pyridazin-3-amine], the Ki is over 10000 nM.

As for `OCCCNc1nccc(N2CCNCC2)n1` [Example 137, 3-[(4-Piperazin-1-ylpyrimidin-2-yl)amino]propan-1-ol], the Ki was 1380 nM.

As to `CN[C@@H]1CCN(c2ccnc(NCc3ccc(F)cc3)c2)C1` [Example 7, N-(4-Fluorobenzyl)-4-[(3R)-3-(methylamino)pyrrolidin-1-yl]pyridin-2-amine dihydrochloride], the Ki came out at 13.7 nM.

Turning to `CN[C@@H]1CCN(c2ccnc(NCC(C)(C)O)n2)C1` [Example 114, 2-Methyl-1-({4-[(3R)-3-(methylamino)pyrrolidin-1-yl]pyrimidin-2-yl}amino)propan-2-ol], the Ki came out at 45.4 nM.

`N[C@@H]1CCN(c2ccnc(NCc3ccccn3)n2)C1` [Example 61]: the Ki was over 10000 nM.

On to `CNC1CN(c2ccnc(NCC(C)(C)CO)n2)C1` [Example 136, 2,2-Dimethyl-3-({4-[3-(methylamino)azetidin-1-yl]pyrimidin-2-yl}amino)propan-1-ol], for which the Ki was determined as 193 nM.

On to `N[C@@H]1CCN(c2cnnc(NCC3CC3)c2)C1` [Example 369, 5-[(3R)-3-Aminopyrrolidin-1-yl]-N-(cyclopropylmethyl)pyridazin-3-amine], for which the Ki was determined as 619 nM.

Regarding `c1nnc(NC2CC2)cc1N1CCNCC1` [Example 315, N-Cyclopropyl-5-piperazin-1-ylpyridazin-3-amine], the Ki is 1920 nM.

As to `CN1CCN(c2cnnc(NCC3CCCC3)c2)CC1` [Example 408, N-(Cyclopentylmethyl)-5-(4-methylpiperazin-1-yl)pyridazin-3-amine], the Ki was over 10000 nM.

Consider `CC(C)(CO)CNc1nccc(N2CCNCC2)n1` [Example 166, 2,2-Dimethyl-3-[(4-piperazin-1-ylpyrimidin-2-yl)amino]propan-1-ol], for which the Ki was over 10000 nM.

Regarding `N[C@@H]1CCN(c2ccnc(NC3CC4CCC3C4)c2)C1` (stereo partly drawn) [Example 270, 4-[(3R)-3-Aminopyrrolidin-1-yl]-N-bicyclo[2.2.1]hept-2-ylpyridin-2-amine], the Ki was found to be 3.53 nM.

As for `CN[C@H]1CCN(c2ccnc(N[C@H]3C[C@H]4CC[C@]3(C)C4(C)C)c2)C1` [Example 206, 4-[(3S)-3-(Methylamino)pyrrolidin-1-yl]-N-[(1R,2S,4R)-1,7,7-trimethylbicyclo[2.2.1]hept-2-yl]pyridin-2-amine], the inhibition constant Ki was 44.9 nM.

As to `CN[C@@H]1CCN(c2ccnc(NC3C4CC5CC(C4)CC3C5)c2)C1` (stereo partly drawn) [Example 208, Adamantan-2-yl-[4-(3R)-(3-methylamino-pyrrolidin-1-yl)-pyridin-2-yl]-amine], the Ki stood at 0.86 nM.

In the case of `CNC1CN(c2ccnc(NCC3CCCC3)c2)C1` [Example 275, N-(Cyclopentylmethyl)-4-[3-(methylamino)azetidin-1-yl]pyridin-2-amine], the inhibition constant Ki was found to be 8.55 nM.

For `CNC1CN(c2cnnc(NCC(C)(C)C)c2)C1` [Example 324, N-(2,2-Dimethylpropyl)-5-[3-(methylamino)azetidin-1-yl]pyridazin-3-amine], the Ki was found to be 899 nM.

As to `c1ccc(CCNc2nccc(N3CCNCC3)n2)cc1` [Example 132, N-(2-Phenylethyl)-4-piperazin-1-ylpyrimidin-2-amine], the inhibition constant (Ki) is 1540 nM.

On to `CN[C@@H]1CCN(c2cnnc(NCc3ccoc3)c2)C1` [Example 387, N-(Furan-3-ylmethyl)-5-[(3R)-3-(methylamino)pyrrolidin-1-yl]pyridazin-3-amine], for which the inhibitory constant (Ki) turned out to be 835 nM.

As to `N[C@@H]1CCN(c2ccnc(NCc3ccccc3)n2)C1` [Example 179, 4-[(3R)-3-Aminopyrrolidin-1-yl]-N-benzylpyrimidin-2-amine], the inhibitory constant (Ki) amounted to 788 nM.

Consider `CC1(C)[C@H]2CC[C@H](CNc3cc(N4C[C@H]5CCN[C@H]5C4)ccn3)[C@@H]1C2` [Example 291, N-{[(1S,2S,5S)-6,6-Dimethylbicyclo[3.1.1]hept-2-yl]methyl}-4-[(3aR,6aR)-hexahydropyrrolo[3.4-b]pyrrol-5(1H)-yl]pyridin-2-amine], for which the inhibitory constant (Ki) was 239 nM.

For `CN[C@@H]1CCN(c2ccnc(NCc3ccccn3)n2)C1` [Example 83, [4-(3R)-(3-Methylamino-pyrrolidin-1-yl)-pyrimidin-2-yl]-pyridin-2-ylmethyl-amine], the Ki amounted to 196 nM.

With `CN[C@H]1CCN(c2cnnc(N[C@H](C)C3CCCCC3)c2)C1` [Example 373, N-[(1R)-1-Cyclohexylethyl]-5-[(3S)-3-(methylamino)pyrrolidin-1-yl]pyridazin-3-amine], the Ki came to 143 nM.

On to `CCCCNc1nccc(N2CC[C@@H](N)C2)n1` [Example 46, 4-[(3R)-3-Aminopyrrolidin-1-yl]-N-butylpyrimidin-2-amine], for which the Ki was found to be 8.4 nM.

As to `CN[C@H]1CCN(c2cnnc(NCc3ccc(F)cc3)c2)C1` [Example 399, N-(4-Fluorobenzyl)-5-[(3S)-3-(methylamino)pyrrolidin-1-yl]pyridazin-3-amine], the Ki was 3940 nM.

`NC1CN(c2cnnc(NC3CCCC3)c2)C1` [Example 326, 5-(3-Aminoazetidin-1-yl)-N-cyclopentylpyridazin-3-amine]: the Ki turned out to be 2740 nM.

In the case of `CCCCNc1cc(N2CC[C@@H](N)C2)cnn1` [Example 367, 5-[(3R)-3-Aminopyrrolidin-1-yl]-N-butylpyridazin-3-amine], the Ki was found to be 867 nM.

For the compound `CC(C)CNc1cc(N2CC[C@H](N)C2)ccn1` [Example 14, 4-[(3S)-3-Aminopyrrolidin-1-yl]-N-(2-methylpropyl)pyridin-2-amine], the Ki came out at 114 nM.

For `N[C@@H]1CCN(c2ccnc(NC3CCCC3)c2)C1` [Example 292, 4-[(3R)-3-Aminopyrrolidin-1-yl]-N-cyclopentylpyridin-2-amine], the Ki is 7.01 nM.

Consider `CN[C@H]1CCN(c2cnnc(NCCCC(F)(F)F)c2)C1` [Example 389, 5-[(3S)-3-(Methylamino)pyrrolidin-1-yl]-N-(4,4,4-trifluorobutyl)pyridazin-3-amine], for which the Ki is 1750 nM.
